Assay [1] deals with Calpain activity in SH-SY5Y cells. As to the kind of experiment: SH-SY5Y + AMC fluorescence assay (Suc-LLVY-AMC substrate). The assay is classed as cell-based.
Assay [2] has as its target T1, Human Calpain 9/NS1 (Homo sapiens, UniProt O14815).
T1 sequence (O14815 1-690): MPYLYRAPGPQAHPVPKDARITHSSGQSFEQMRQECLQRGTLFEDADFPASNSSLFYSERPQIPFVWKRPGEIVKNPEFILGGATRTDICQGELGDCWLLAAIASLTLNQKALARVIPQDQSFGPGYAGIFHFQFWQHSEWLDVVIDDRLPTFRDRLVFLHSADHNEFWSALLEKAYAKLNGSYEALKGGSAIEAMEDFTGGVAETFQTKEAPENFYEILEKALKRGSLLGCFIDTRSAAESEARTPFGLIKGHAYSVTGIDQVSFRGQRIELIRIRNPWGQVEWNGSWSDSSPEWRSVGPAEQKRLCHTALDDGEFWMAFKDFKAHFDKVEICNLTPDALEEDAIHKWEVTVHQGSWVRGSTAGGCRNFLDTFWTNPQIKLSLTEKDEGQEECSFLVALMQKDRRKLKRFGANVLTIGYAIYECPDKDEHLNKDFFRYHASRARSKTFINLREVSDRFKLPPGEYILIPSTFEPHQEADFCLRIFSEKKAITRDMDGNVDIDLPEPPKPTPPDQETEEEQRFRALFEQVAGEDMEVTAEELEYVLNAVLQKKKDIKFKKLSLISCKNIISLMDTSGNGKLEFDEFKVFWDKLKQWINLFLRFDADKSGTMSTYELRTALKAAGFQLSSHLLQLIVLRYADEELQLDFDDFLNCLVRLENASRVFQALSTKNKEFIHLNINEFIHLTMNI
T1 sequence (P04632 1-268 partner): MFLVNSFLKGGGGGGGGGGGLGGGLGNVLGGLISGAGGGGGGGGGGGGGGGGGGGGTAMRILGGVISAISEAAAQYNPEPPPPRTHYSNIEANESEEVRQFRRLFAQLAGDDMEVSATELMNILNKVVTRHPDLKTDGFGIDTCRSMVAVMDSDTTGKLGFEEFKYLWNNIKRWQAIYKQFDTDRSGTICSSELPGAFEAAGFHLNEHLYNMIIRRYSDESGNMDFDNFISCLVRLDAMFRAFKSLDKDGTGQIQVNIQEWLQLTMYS
As to the kind of experiment: Calpain inhibition continuous fluorescence (FRET) assay, Human Calpain 9/NS1. The conditions noted are these: read-out: Human Calpain 9/NS1 IC50. In kind it is biochemical. The essentials: (§1)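 Calpain activity is measured kinetically with a quenched FRET peptide in 50 mM Tris pH 7.5, 100 mM NaCl, 1 mM DTT, with CaCl2 triggering activation. Rates over 1-5 min are plotted against log inhibitor to obtain IC50 by 4-parameter logistic fitting.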

In assay [3] the test system is Calpain activity in SH-SY5Y cells (SBDP-150). As to the kind of experiment: SH-SY5Y Spectrin western blot assay (SBDP-150 breakdown product, A23187-induced). The assay is classed as cell-based. The following applies: Homo sapiens, read-out: SH-SY5Y Spectrin IC50. (Immunoblotting shows a protein as a band on a membrane.)
The target of assay [4] is T2, Human Calpain 2/NS1 (Homo sapiens, UniProt P17655).
T2 sequence (P17655 1-700): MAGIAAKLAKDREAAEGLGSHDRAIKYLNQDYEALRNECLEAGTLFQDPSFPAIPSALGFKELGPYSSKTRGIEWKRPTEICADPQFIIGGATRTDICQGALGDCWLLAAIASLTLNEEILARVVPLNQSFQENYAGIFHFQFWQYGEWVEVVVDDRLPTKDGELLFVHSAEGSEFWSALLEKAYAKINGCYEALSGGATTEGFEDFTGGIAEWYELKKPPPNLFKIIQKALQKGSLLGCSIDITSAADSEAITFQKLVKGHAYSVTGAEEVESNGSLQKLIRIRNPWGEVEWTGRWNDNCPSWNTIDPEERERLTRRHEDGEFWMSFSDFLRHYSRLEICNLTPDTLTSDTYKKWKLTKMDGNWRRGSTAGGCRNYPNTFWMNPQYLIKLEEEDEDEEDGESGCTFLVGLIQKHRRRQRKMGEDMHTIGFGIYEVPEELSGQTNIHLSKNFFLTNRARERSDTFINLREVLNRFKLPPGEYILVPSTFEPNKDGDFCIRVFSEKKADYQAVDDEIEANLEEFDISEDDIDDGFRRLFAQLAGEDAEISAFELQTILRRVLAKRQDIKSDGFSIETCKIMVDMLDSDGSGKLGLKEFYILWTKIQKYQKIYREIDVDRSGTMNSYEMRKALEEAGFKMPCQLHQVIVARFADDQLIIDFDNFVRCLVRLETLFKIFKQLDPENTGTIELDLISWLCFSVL
T2 sequence (P04632 1-268 partner): T1 sequence (P04632 1-268 partner)
As to the kind of experiment: Calpain inhibition continuous fluorescence (FRET) assay, Human Calpain 2/NS1. In kind it is biochemical. The conditions noted are these: read-out: Human Calpain 2/NS1 IC50. The essentials: as §1

Assay [5] concerns the target T3, Human Calpain 1/NS1 (Homo sapiens, UniProt P07384).
T3 sequence (P07384 1-714): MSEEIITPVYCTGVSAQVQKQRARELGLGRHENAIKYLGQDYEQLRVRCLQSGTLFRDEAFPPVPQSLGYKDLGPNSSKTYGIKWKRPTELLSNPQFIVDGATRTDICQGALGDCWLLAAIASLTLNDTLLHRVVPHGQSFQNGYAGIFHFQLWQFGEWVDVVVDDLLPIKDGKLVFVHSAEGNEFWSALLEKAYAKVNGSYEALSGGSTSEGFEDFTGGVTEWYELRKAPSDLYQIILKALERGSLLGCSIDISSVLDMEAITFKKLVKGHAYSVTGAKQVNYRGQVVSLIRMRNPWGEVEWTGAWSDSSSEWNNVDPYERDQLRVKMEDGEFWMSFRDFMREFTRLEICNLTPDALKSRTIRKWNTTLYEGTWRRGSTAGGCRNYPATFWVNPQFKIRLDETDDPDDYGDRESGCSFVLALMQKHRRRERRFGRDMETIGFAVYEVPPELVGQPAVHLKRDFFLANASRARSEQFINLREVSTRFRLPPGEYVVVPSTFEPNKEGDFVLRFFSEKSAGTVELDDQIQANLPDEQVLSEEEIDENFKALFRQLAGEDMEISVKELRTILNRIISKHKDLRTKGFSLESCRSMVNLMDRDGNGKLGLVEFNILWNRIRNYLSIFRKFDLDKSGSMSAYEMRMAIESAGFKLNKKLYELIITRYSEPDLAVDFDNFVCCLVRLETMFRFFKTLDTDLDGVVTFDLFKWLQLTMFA
T3 sequence (P04632 1-268 partner): T1 sequence (P04632 1-268 partner)
As to the kind of experiment: Calpain inhibition continuous fluorescence (FRET) assay, Human Calpain 1/NS1. The following applies: read-out: Human Calpain 1/NS1 IC50. The assay is classed as biochemical. The essentials: as §1

The mark [6] stands for this setting: SH-SY5Y cells, A23187-induced SBDP-150, western blot.
Where [7] appears, read: Column E, read-out: SH-SY5Y + AMC IC50.
[8] abbreviates: Column D, SH-SY5Y cells, A23187-induced SBDP-150.

Where two headings read alike, the source gives them in different places.

Consider `CC(C)n1cc(C(=O)NC(Cc2ccccc2)C(=O)C(N)=O)c(-c2ccc(F)cc2)n1` (stereo not drawn) [Compound 474, N-(4-amino-3,4-dioxo-1-phenylbutan-2-yl)-3-(4-fluorophenyl)-1-isopropyl-1H-pyrazole-4-carboxamide], for which the IC50 in assay [1] (read-out: SH-SY5Y + AMC IC50) was 10 to 25 µM; in assay [2], less than 3 µM; in assay [3] (setting [6]), 10 to 25 µM; in assay [4], less than 3 µM; in assay [5] it was less than 3 µM.
With `CCOC(=O)NCc1cccc(-n2nc(C)cc2C(=O)N[C@@H](Cc2ccccc2)C(=O)C(N)=O)c1` [Compound 147, Ethyl (S)-(3-(5-((4-amino-3,4-dioxo-1-phenylbutan-2-yl)carbamoyl)-3-methyl-1H-pyrazol-1-yl)benzyl)carbamate], the IC50 in assay [1] (read-out: SH-SY5Y + AMC IC50, Column E) was 10 to 25 µM; in assay [2] (Column C), less than 3 µM; in assay [3] (SH-SY5Y), 10 to 25 µM; in assay [4] (Column B), less than 3 µM; in assay [5] (Column A), less than 3 µM.
For the molecule `NC(=O)C(=O)C(Cc1ccccc1)NC(=O)c1nsnc1-c1cccc(COCc2ccccc2)c1` (stereo not drawn) [Compound 370, N-(4-amino-3,4-dioxo-1-phenylbutan-2-yl)-4-(3-((benzyloxy)methyl)phenyl)-1,2,5-thiadiazole-3-carboxamide], the IC50 in assay [1] (read-out: SH-SY5Y + AMC IC50) is greater than 25 µM; in assay [2], less than 3 µM; in assay [3] (setting [6]), 10 to 25 µM; in assay [4], less than 3 µM; in assay [5], less than 3 µM.
Take `COc1cccc(-n2nc(C)cc2C(=O)N[C@@H](Cc2ccccc2)C(=O)C(N)=O)n1` [Compound 99, (S)—N-(4-amino-3,4-dioxo-1-phenylbutan-2-yl)-1-(6-methoxypyridin-2-yl)-3-methyl-1H-pyrazole-5-carboxamide]: the IC50 in assay [1] (setting [7]) is 10 to 25 µM; in assay [2] (Column C) it was less than 3 µM; in assay [3] (setting [8]) it was 10 to 25 µM; in assay [4] (Column B), less than 3 µM; in assay [5] (Column A), less than 3 µM.
`NC(=O)C(=O)[C@H](Cc1ccccc1)NC(=O)c1conc1-c1ccccn1` [Compound 288, (S)—N-(4-amino-3,4-dioxo-1-phenylbutan-2-yl)-3-(pyridin-2-yl)isoxazole-4-carboxamide]: the IC50 in assay [1] (setting [7]) is greater than 25 µM; in assay [2] (Column C), less than 3 µM; in assay [3] (setting [8]) it was greater than 25 µM; in assay [4] (Column B), less than 3 µM; in assay [5] (Column A), less than 3 µM.
As for `Cc1cncc(-c2oncc2C(=O)NC(Cc2ccccc2)C(=O)C(N)=O)c1` (stereo not drawn) [Compound 600, N-(4-amino-3,4-dioxo-1-phenylbutan-2-yl)-5-(5-methylpyridin-3-yl)isoxazole-4-carboxamide], the IC50 in assay [1] (read-out: SH-SY5Y + AMC IC50) was greater than 25 µM; in assay [2] it was less than 3 µM; in assay [3] (setting [6]), 10 to 25 µM; in assay [4] it was less than 3 µM; in assay [5], less than 3 µM.
`Cc1nc(-c2ccccc2)c(C(=O)NC(Cc2ccccc2)C(=O)C(=O)NC2CC2)o1` (stereo not drawn) [Compound 459, N-(4-(cyclopropylamino)-3,4-dioxo-1-phenylbutan-2-yl)-2-methyl-4-phenyloxazole-5-carboxamide]: the IC50 in assay [1] (read-out: SH-SY5Y + AMC IC50) was less than 10 µM; in assay [2], less than 3 µM; in assay [3] (setting [6]), 10 to 25 µM; in assay [4] it was less than 3 µM; in assay [5], less than 3 µM.
Turning to `NC(=O)C(=O)C(Cc1ccccc1)NC(=O)c1cn(C(F)F)nc1-c1cccc2cnccc12` (stereo not drawn) [Compound 598, N-(4-amino-3,4-dioxo-1-phenylbutan-2-yl)-1-(difluoromethyl)-3-(isoquinolin-5-yl)-1H-pyrazole-4-carboxamide], the IC50 in assay [1] (read-out: SH-SY5Y + AMC IC50) is less than 10 µM; in assay [2], less than 3 µM; in assay [3] (setting [6]), less than 10 µM; in assay [4], less than 3 µM; in assay [5], less than 3 µM.
Turning to `NC(=O)C(=O)C(Cc1ccccc1)NC(=O)c1cn(C2CCCC2)nc1-c1ccccc1` (stereo not drawn) [Compound 525, N-(4-amino-3,4-dioxo-1-phenylbutan-2-yl)-1-cyclopentyl-3-phenyl-1H-pyrazole-4-carboxamide], the IC50 in assay [1] (read-out: SH-SY5Y + AMC IC50) is less than 10 µM; in assay [2], less than 3 µM; in assay [3] (setting [6]) it was greater than 25 µM; in assay [4], less than 3 µM; in assay [5], less than 3 µM.
With `Cc1ccccc1-c1nsnc1C(=O)NC(Cc1ccccc1)C(=O)C(N)=O` (stereo not drawn) [Compound 326, N-(4-amino-3,4-dioxo-1-phenylbutan-2-yl)-4-(o-tolyl)-1,2,5-thiadiazole-3-carboxamide], the IC50 was less than 10 µM in assay [1] (read-out: SH-SY5Y + AMC IC50); less than 3 µM in assay [2]; 10 to 25 µM in assay [3] (setting [6]); less than 3 µM in assay [4]; less than 3 µM in assay [5].
For `Cc1cc(C(=O)N[C@@H](Cc2ccccc2)C(=O)C(N)=O)c(-c2ccccc2)o1` [Compound 118, (S)—N-(4-amino-3,4-dioxo-1-phenylbutan-2-yl)-5-methyl-2-phenylfuran-3-carboxamide], the IC50 in assay [1] (setting [7]) was greater than 25 µM; in assay [2] (Column C) it was less than 3 µM; in assay [3] (setting [8]) it was less than 10 µM; in assay [4] (Column B), less than 3 µM; in assay [5] (Column A), less than 3 µM.
In the case of `Cn1cc(C(=O)NC(Cc2ccccc2)C(=O)C(N)=O)c(-c2cccc3c2OCO3)n1` (stereo not drawn) [Compound 514, N-(4-amino-3,4-dioxo-1-phenylbutan-2-yl)-3-(benzo[d][1,3]dioxol-4-yl)-1-methyl-1H-pyrazole-4-carboxamide], the IC50 is less than 10 µM in assay [1] (read-out: SH-SY5Y + AMC IC50); less than 3 µM in assay [2]; greater than 25 µM in assay [3] (setting [6]); less than 3 µM in assay [4]; less than 3 µM in assay [5].

Source of the values: patent US11339130B1 (Blade Therapeutics, Inc., priority 2016, dated 2022).
